Laboratory results as given in patent publication US4737519A, “Substituted naphthalenes, indoles, benzofurans, and benzothiophenes as lipoxygenase inhibitors” (The Upjohn Company, priority 1986, dated 1988).

Key:
[1] = tested on: SRS-A; experiment: SRS-A synthesis inhibition in rat mononuclear cells incubated with cysteine and challenged with calcium ionophore; type: cell-based; conditions: 10 micrograms/ml
Procedure: This test is conducted in rat mononuclear cells incubated in the presence of cysteine and challenged with a calcium ionophore (which induces SRS-A formation). Among the nonamino compounds of this invention, in this test system, 1-acetoxy-2-n-butyl-4-methoxynaphthalene (Example 3) and 1-acetoxy-2,3-diethyl-4-methoxynaphthalene (Example 4) are preferred.

[2] = tested on: lipoxygenase; experiment: lipoxygenase inhibition, oxygen uptake of washed human platelets with arachidonic acid; type: cell-based; conditions: for inhibition of 5-HETE production: 10 μm
Procedure: The compounds of the present invention were also tested for lipoxygenase inhibition. Arachidonic acid is added to washed human platelets and the oxygen uptake is measured using oxygraph cells. A decrease of oxygen uptake versus the control cell indicates inhibition of lipoxygenase. For a full description of the procedure see, Wallach, et al., Biochim. Biophys. Acta. 231: 445 (1976).

[3] = tested on: mucous secretion; experiment: canine tracheal mucous secretion (hillock count); type: in vivo, mongrel dogs
Procedure: Mongrel dogs (weight 18-35 kg) were anesthetized with a mixture of chloralose (100 mg/kg) and urethane (500 mg/kg) via intravenous injection. The animals were secured to a surgery table, ventral side up, and the neck and inner right hind limb were shaved. A ventral midline incision was made in the neck using a Bovie CSVII electrosurgical unit, starting from the papillae (interramal) to the clavicle thus exposing the trachea. An endotracheal tube was secured into the lower trachea. The animals were then connected via the endotracheal tube to a Harvard respirator (Model 607A) that delivered room air at a constant tidal volume and frequency. Two polyethylene catheters were connected to the endotracheal tube, and one was connected to a medical gas analyzer (Beckman, Model LB-2) that continuously measured the carbon dioxide (CO2) content of the expired air for determination of end tidal CO2. The other was connected to a pressure transducer (Statham, Model PMI 131TC+2.5-350) for the measurement of airway press ure.
A second incision made in the inner right hind limb to expose the femoral artery and vein was made for the catheterization of these large vessels. A polyethylene catheter was tied into the artery and connected to a pressure transducer (Statham, Model P231D) for the measurement of blood pressure. This catheter also allowed for samples of arterial blood to be collected for measurements of blood gas tension using a blood gas analyser (Corning, Model 175). Another polyethylene catheter was tied into the femoral vein which was used for injecting additional anesthetic and paralyzing drugs. Gallamine triethiodide (20-40 mg) was used to paralyze the respiratory muscles and a single injection of sodium bicarbonate 7.5% (0.5 mg/kg) in conjunction with a continuous i.v. drip of 5% dextrose in 0.9% saline helped to maintain fluid balance. All physiological measurements were recorded and monitored on a polygraph (Grass instruments, Model 7D). Once the femoral cutdown was completed, surgery on the neck region resumed. The carotid artery was exposed and the "knuckle" (a portion of the carotid which bisects to supply blood flow to the trachea and neck muscles) was located. A small polyethylene catheter was then inserted into the muscular branch of the cranial thyroid artery (CTA). This allowed for close arterial injection of experimental agents. The strap muscles were removed and the mucosal surface of the trachea exposed by cutting along the anterior midline of the upper two-thirds of the extrathoracic trachea and pulling the cut edges widely apart. The exposed mucosa was checked for proper canulation by blanching and appropriate adjustments of the canula into the CTA were made until blanching was achieved.
Isometric tension measurements of the trachealis muscle were recorded by suturing a rigid, plastic bar to the (15) cartilaginous rings of the cut edges of the trachea, and connecting one side to a fixed restraint and the contralateral side to a force displacement transducer (Grass, Model FT 03C). An initial tension of 25-30 g/cm of trachea was applied to the muscle, and it was allowed to stabilize for 45 min. An initial zero tension point was determined before agonists were injected into the CTA, and the zero was readjusted after agonist injections.
To visualize secretions coming from the submucosal gland duct openings of the trachea, powdered tantalum, an inert metal (2-5 microns in size) was sprayed on the trachea until it formed a uniform layer over the mucosal surface. The tantalum itself did nothing to normal secretion, but prevented the normal ciliary dispersion of secretions from the gland duct openings; these secretions, therefore, caused elevations ("hillocks") in the tantalum layer. The number of hillocks formed in a 1.2 cm^2 field, 1-2 cm from the larynx, were counted and their images were recorded with a video camera (Hitachi CCTV, Model HV-17TU) mounted on a dissecting microscrope (Zeiss Ompi-1) with a beam splitter. […]

[4] = tested on: deep vein thrombosis; experiment: deep vein thrombosis: jugular vein stasis in cats, scanning electron microscopy; type: in vivo, domestic short hair cats
Procedure: Nine adult domestic short hair cats weighing 4.5-5 kg were anesthetized with sodium pentabarbital (25-30 mg/kg i.v.). The neck area was prepared for a sterile cut down procedure and the jugular veins were exposed. After exposure of the veins each animal was injected with epsilon amino caproic acid (eaca) to inhibit plasminogen activation (2.5 grams i.v. in Tyrode's solution). […] Six of the cats were also treated with 2,3-diethyl-4-methoxy-1-naphthalenol, acetate. Three of the cats were given 1 mg/kg i.v. and 3 of the cats were treated with 5 mg/kg i.v. prior to venous occlusion. The jugular veins were carefully dissected free of surrounding connective tissue and the vein was ligated at the thoracic inlet with 3-0 dexon. The skin incision was closed and the animals were maintained in surgical anesthesia for 2 hours. At the end of the 2 hour waiting period, the jugular veins were exposed again. A 25 gauge butterfly needle was positioned into the lumen and blood was flushed out of the vein with heparinized Tyrode's solution (1U heparin/ml). The veins were tied off and removed under physiologic pressure. The vessels were immediately immersed in a 2.5% glutaraldehyde solution prepared in Tyrode's solution for fixation. The veins were fixed overnight at 5 degrees centigrade, postfixed in 1% osmium tetroxide overnight, dehydrated in ethanol and substituted by amyl acetate. All veins were critical point dried from carbon dioxide using a Denton DCP-1 critical point drying apparatus. The veins were mounted on stubas, gold coated on a Denton DV-502 modified vacuum evaporator and examined on a Cambridge Stereoscan 150 scanning electron microscope.
Two hours of jugular vein stasis following the trauma of dissection caused massive white cell adhesion to and migration under the venous endothelium of non-treated cats and produced sloughing of the endothelium and exposure of the basement membrane. This damage was sufficient to initiate thrombosis. Many of the exposed areas of basement membrane had adherent platelets. The platelets were adherent as monolayers or as aggregates. In some areas fibrin was found deposited on the endothelium or exposed basement membrane. Leukocytes were occasionally associated with the fibrin.

[5] = tested on: leukotriene synthesis; experiment: inhibition of leukotriene synthesis (standard laboratory test); type: cell-based
Procedure: Certain of the amino acyl compounds of this invention (when R3 is --C(O)--(CR17 R18)m --(CH2)n --NR14 R15, --C(O)--AA or --C(O)--PhX--NH2) were evaluated in a standard laboratory test to measure the inhibition of leukotriene synthesis. Four of the amino-type compounds of this invention were preferred in this test. Specifically, in this test system, L-Valine, 2,3-diethyl-4-methoxynaphth-1-yl ester, hydrochloride; L-Valine, 2-n-butyl-4-methoxynaphth-1-yl ester; L-Valine, 2-n-butyl-4-methoxynaphth-1-yl ester, hydrochloride; and L-Alanine, 2-n-butyl-4-methoxynaphth-1-yl ester were preferred.

[6] = tested on: human airways; conditions: in vitro; cited from earlier work
[7] = 1.0 mg/kg oral, predose time 3.5 hr, n=2, ↑ indicates stimulation
[8] = 5 mg/kg oral, predose time 3.5 hr, n=2
[9] = 1.0%, inhalation, n=6, ***p<0.0001

With `CCCCc1cc(OC)c2ccccc2c1OC(C)=O` [Example 3, 2-Butyl-4-methoxy-1-naphthalenol, acetate] the inhibition at 10 µg/mL [1] was 100%, the “inhibition of 5-HETE production” value [2] was “completely inhibiting” and the IC50 ([2]; lipoxygenase system, washed human platelets) was roughly 0.1 µM. For the same molecule, the “% Inhibition of Agonist Response, Indo/AA” value (“% Inhibition … Indo/AA” below) ([3]; 0.001%, inhalation, n=4, **p<0.005) was 100%, the “% Inhibition of Agonist Response, Hypoxia” value ([3]; 0.001%, inhalation, n=4, *p<0.05) was 87% and the “% Inhibition of Agonist Response, Baseline: stimulation (.uparw.)” value ([3]; 0.001%, inhalation, n=4, ↑ indicates stimulation) was 24%. For the same molecule, the “% Inhibition … Indo/AA” value ([3]; 1.0 mg/kg oral, predose time 3.5 hr, n=2) was 50%, the “% Inhibition of Agonist Response, Baseline: stimulation (.uparw.)” value [3, 7] was 6% and the “% Inhibition of Agonist Response, Hypoxia: stimulation (.uparw.)” value [3, 7] was 11%. For the same molecule, the “% Inhibition … Indo/AA” value ([3]; 1.0 mg/kg oral, predose time 5.0 hr, n=2, *p<0.05) was 62%, the “% Inhibition of Agonist Response, Hypoxia” value [3, 8] was 49% and the “% Inhibition … Indo/AA” value [3, 8] was 69%. The “% Inhibition of Agonist Response, Baseline: stimulation (.uparw.)” value ([3]; 5 mg/kg oral, predose time 3.5 hr, n=2, ↑ indicates stimulation) was 30%, the “% Inhibition … Indo/AA” value ([3]; 5 mg/kg oral, predose time 4.5 hr, n=2) was 95% and the “% Inhibition of Agonist Response, Baseline” value ([3]; 0.01%, inhalation, n=5) was 19%. For the same molecule, the “% Inhibition of Agonist Response, Hypoxia” value ([3]; 0.01%, inhalation, n=5) was 91%, the “% Inhibition … Indo/AA” value ([3]; 0.01%, inhalation, n=5, **p<0.005) was 100% and the “% Inhibition of Agonist Response, Hypoxia” value ([3]; 10 mg/kg oral, predose time 3 hr, n=2) was 94%. For the same molecule, the “% Inhibition … Indo/AA” value ([3]; 10 mg/kg oral, predose time 3 hr, n=2, *p<0.05) was 100%, the “% Inhibition of Agonist Response, Baseline: stimulation (.uparw.)” value ([3]; 10 mg/kg oral, predose time 3 hr, n=2, ↑ indicates stimulation) was 5% and the “% Inhibition … Indo/AA” value ([3]; 10 mg/kg oral, predose time 4 hr, n=2, *p<0.05) was 100%. The “% Inhibition … Indo/AA” value ([3]; 10 mg/kg oral, predose time 5 hr, n=2, *p<0.05) was 100%, the “% Inhibition of Agonist Response, Baseline” value ([3]; 0.1%, inhalation, n=4) was 23% and the “% Inhibition … Indo/AA” value ([3]; 0.1%, inhalation, n=4, **p<0.005) was 100%. The “% Inhibition of Agonist Response, Hypoxia” value ([3]; 0.1%, inhalation, n=4, *p<0.05) was 96%, the “% Inhibition of Agonist Response, Baseline” value ([3]; 1.0%, inhalation, n=6) was 6% and the “% Inhibition of Agonist Response, Hypoxia” value [3, 9] was 100%. The “% Inhibition … Indo/AA” value [3, 9] was 100% and the “effect on baseline secretion and on enhanced mucus secretion due to hypoxia or arachidonic acid” value ([3]; mongrel dog model) was “effective in blocking baseline secretion in a dose dependent fashion as well as enhanced mucus secretion due to hypoxia or arachidonic acid administration”.

For `CCc1c(CC)c(OC(C)=O)c2ccccc2c1OC` [Example 4, 2,3-Diethyl-4-methoxy-1-naphthalenol, acetate], the inhibition at 10 µg/mL [1] was 95%, the “inhibition of 5-HETE production” value [2] was “completely inhibiting” and the “areas with detached endothelial cells or exposed basement membrane” value ([4]; 1 mg/kg i.v.) was “Few areas with detached endothelial cells or exposed basement membrane”. For the same molecule, the “leukocyte adhesion or migration” value ([4]; 1 mg/kg i.v.) was “did not reduce leukocyte adhesion or migration”, the “leukocyte release of hydrolytic enzymes and production of superoxides” value ([4]; 1 mg/kg i.v.) was “apparently inhibited” and the “areas of adherent leukocytes” value ([4]; 5 mg/kg i.v.) was “only patchy areas of adherent leukocytes were observed”. For the same molecule, the fibrin deposition ([4]; 5 mg/kg i.v.) was “Only occasional small areas of fibrin deposition”, the “inhibitory effect on leukocyte mediated damage” value ([4]; 5 mg/kg i.v., compared with 1 mg/kg) was “even greater inhibitory effect on leukocyte mediated damage” and the “numbers of adhering and migrating leukocytes” value ([4]; 5 mg/kg i.v., compared with control or 1 mg/kg group) was “appeared to be less”. The “vascular surface with intact endothelial cell cover and few adherent leukocytes” value ([4]; 5 mg/kg i.v., with the exception of one vein) was “approximately half or more of the vascular surface” and the “effect on the vascular changes” value ([4]; 1 and 5 mg/kg i.v. prior to venous occlusion) was “dose dependent effect on the vascular changes”.

In the case of `CCCCc1cc(OC)c2ccccc2c1OC(=O)[C@H](C)N` [L-Alanine, 2-n-butyl-4-methoxynaphth-1-yl ester], the inhibition at 1 µg/mL ([5]; 1 microgram/ml) is reported as 98% and the “inhibition of synthesis of leukotriene” value ([5]; 10 micrograms/ml) is reported as “completely inhibited”.

With `CCc1c(CC)c(OC(=O)[C@@H](N)C(C)C)c2ccccc2c1OC.Cl` [L-Valine, 2,3-diethyl-4-methoxynaphth-1-yl ester, hydrochloride] the inhibition at 1 µg/mL ([5]; 1 microgram/ml) was 100% and the “inhibition of synthesis of leukotriene” value ([5]; 10 micrograms/ml) was “completely inhibited”.

With `CCCCc1cc(OC)c2ccccc2c1OC(=O)[C@@H](N)C(C)C.Cl` [L-Valine, 2-n-butyl-4-methoxynaphth-1-yl ester, hydrochloride] the “inhibition of synthesis of leukotriene” value ([5]; 1 microgram/ml) was 93% and the “inhibition of synthesis of leukotriene” value ([5]; 10 micrograms/ml) was “completely inhibited”.

For `CCCCc1cc(OC)c2ccccc2c1OC(=O)[C@@H](N)C(C)C` [L-Valine, 2-n-butyl-4-methoxynaphth-1-yl ester], the inhibition at 1 µg/mL ([5]; 1 microgram/ml) was 97% and the “inhibition of synthesis of leukotriene” value ([5]; 10 micrograms/ml) was “completely inhibited”.

With `COc1ccc2c(c1)c(CC(=O)O)c(C)n2C(=O)c1ccc(Cl)cc1` [indomethacin, reference compound] the “block of normal baseline secretion” value ([3]; indomethacin 5 mg/kg pretreatment, at least 30 minutes) was “about 20%” and the “block of the effect of arachidonate alone” value ([3]; indomethacin 5 mg/kg pretreatment, arachidonate 1.0 mg in the CTA) was “nicely blocked the effect of arachidonate alone”.

For monohydroxyeicosatetraenoic acid, the “release of mucus from human airways” value [6] is given as “release mucus from human airway”.
